In patent US8143393B2, “Substituted 4-amino-pyrrolotriazine derivatives useful for treating hyper-proliferative disorders and diseases associated with angiogenesis” (Bayer HealthCare LLC, priority 2005, dated 2012) one finds IC50 data, which are given here for 26 compounds.

For one experiment, the target named is T1, FGFR-1 (Homo sapiens, UniProt P11362).
T1 construct: GST; made in house
T1 sequence (P11362 22-822): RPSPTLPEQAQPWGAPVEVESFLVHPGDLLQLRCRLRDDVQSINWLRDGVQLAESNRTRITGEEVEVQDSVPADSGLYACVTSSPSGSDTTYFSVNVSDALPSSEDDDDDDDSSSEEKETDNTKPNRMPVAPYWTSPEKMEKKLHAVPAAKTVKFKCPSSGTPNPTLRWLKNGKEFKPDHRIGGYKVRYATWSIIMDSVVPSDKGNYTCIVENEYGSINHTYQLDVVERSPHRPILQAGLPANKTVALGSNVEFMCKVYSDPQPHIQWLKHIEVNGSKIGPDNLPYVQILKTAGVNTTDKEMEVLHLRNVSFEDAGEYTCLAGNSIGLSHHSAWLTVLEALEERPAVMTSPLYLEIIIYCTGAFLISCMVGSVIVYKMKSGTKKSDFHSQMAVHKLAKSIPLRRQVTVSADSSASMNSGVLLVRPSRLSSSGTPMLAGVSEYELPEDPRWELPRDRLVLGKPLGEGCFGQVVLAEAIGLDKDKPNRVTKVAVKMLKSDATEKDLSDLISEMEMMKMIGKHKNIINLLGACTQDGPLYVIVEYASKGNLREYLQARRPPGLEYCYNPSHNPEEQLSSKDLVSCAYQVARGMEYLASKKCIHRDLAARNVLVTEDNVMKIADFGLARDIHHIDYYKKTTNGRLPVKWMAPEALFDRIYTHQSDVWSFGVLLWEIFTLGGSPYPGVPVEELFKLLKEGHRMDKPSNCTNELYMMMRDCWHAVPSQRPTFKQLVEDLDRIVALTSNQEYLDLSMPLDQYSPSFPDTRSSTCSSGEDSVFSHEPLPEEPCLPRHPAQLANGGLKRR
In words: FGFR-1 TR-FRET biochemical assay. As to conditions: 0.6 uM ATP, 5 nM FGFR1-GST; bounds given in nM. The essentials:
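FGFR1-GST (5 nM) was incubated with poly GT-biotin (25 nM) and 0.6 uM ATP in HEPES pH 7.5/MgCl2 with 1% DMSO for 1 h at room temperature. Phosphorylation was read by LANCE TR-FRET (Eu-anti-pTyr/SA-APC, 665/615 ratio). Percent inhibition was background-corrected against no-ATP wells, with final compound concentrations of 10 μM–0.128 nM.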
One may read the IC50 as the concentration that gives 50% inhibition. A lower IC50 goes with higher potency. Compound `CC(=O)N1CCC(c2cc(-c3ccc(NC(=O)Nc4cc(C(F)(F)F)ccc4F)c(Cl)c3)c3c(N)ncnn23)CC1` [Example 219, N-{4-[7-(1-acetylpiperidin-4-yl)-4-aminopyrrolo[2,1-f][1,2,4]triazin-5-yl]-2-chlorophenyl}-N′-[2-fluoro-5-(trifluoromethyl)phenyl]urea] registered an IC50 of less than 10 nM.
Same read-out and setting: the value for `Nc1ncnn2c(CCO)cc(-c3ccc(NC(=O)Nc4cc(C(F)(F)F)ccc4F)c(F)c3)c12` [Example 220, N-{4-[4-amino-7-(2-hydroxyethyl)pyrrolo[2,1-f][1,2,4]triazin-5-yl]-2-fluorophenyl}-N′-[2-fluoro-5-(trifluoromethyl)phenyl]urea] was less than 10 nM; that for `Cc1cc(-c2cc(CCCN3CCOCC3)n3ncnc(N)c23)ccc1NC(=O)Nc1cc(C(F)(F)F)ccc1F` [Example 221, N-{4-[4-amino-7-(3-morpholin-4-ylpropyl)pyrrolo[2,1-f][1,2,4]triazin-5-yl]-2-methylphenyl}-N′-[2-fluoro-5-(trifluoromethyl)phenyl]urea] was less than 10 nM; that for `Nc1ncnn2c(CCCCN3CCOCC3)cc(-c3ccc(NC(=O)Nc4cc(C(F)(F)F)ccc4F)c(F)c3)c12` [Example 224, N-{4-[4-amino-7-(4-morpholin-4-ylbutyl)pyrrolo[2,1-f][1,2,4]triazin-5-yl]-2-fluorophenyl}-N′-[2-fluoro-5-(trifluoromethyl)phenyl]urea] was less than 10 nM.
Consider `Nc1ncnn2c(CCN3CCCOCC3)cc(-c3ccc(NC(=O)Nc4cc(C(F)(F)F)ccc4F)c(F)c3)c12` [Example 226, N-(4-{4-amino-7-[2-(1,4-oxazepan-4-yl)ethyl]pyrrolo[2,1-f][1,2,4]triazin-5-yl}-2-fluorophenyl)-N′-[2-fluoro-5-(trifluoromethyl)phenyl]urea], for which the IC50 is less than 10 nM.
As for `CC(C)(C)c1ccnc(NC(=O)Nc2ccc(-c3cc(CCN4CCOCC4)n4ncnc(N)c34)cc2F)c1` [Example 228, N-{4-[4-amino-7-(2-morpholin-4-ylethyl)pyrrolo[2,1-f][1,2,4]triazin-5-yl]-2-fluorophenyl}-N′-(4-tert-butylpyridin-2-yl)urea], the IC50 was less than 10 nM.
For `Nc1ncnn2c(C3CCN(C(=O)C4CC4)CC3)cc(-c3ccc(NC(=O)Nc4cc(C(F)(F)F)ccc4F)c(Cl)c3)c12` [Example 230, N-(4-{4-amino-7-[1-(cyclopropylcarbonyl)piperidin-4-yl]pyrrolo[2,1-f][1,2,4]triazin-5-yl}-2-chlorophenyl)-N′-[2-fluoro-5-(trifluoromethyl)phenyl]urea], the IC50 is 10 to 100 nM.
In turn, `Nc1ncnn2c(C3CCN(C(=O)CN4CCOCC4)CC3)cc(-c3ccc(NC(=O)Nc4cc(C(F)(F)F)ccc4F)c(Cl)c3)c12` [Example 231, N-(4-{4-amino-7-[1-(morpholin-4-ylacetyl)piperidin-4-yl]pyrrolo[2,1-f][1,2,4]triazin-3-yl}-2-chlorophenyl)-N′-[2-fluoro-5-(trifluoromethyl)phenyl]urea] gave an IC50 of 10 to 100 nM.
As for `Nc1ncnn2c(C(=O)CO)cc(-c3ccc(NC(=O)Nc4cc(C(F)(F)F)ccc4F)c(F)c3)c12` [Example 234, N-[4-(4-amino-7-glycoloylpyrrolo[2,1-f][1,2,4]triazin-5-yl)-2-fluorophenyl]-N′-[2-fluoro-5-(trifluoromethyl)phenyl]urea], the concentration for half-maximal inhibition (IC50) was in the range of 10 to 100 nM.
`Nc1ncnn2c(C3CCN(C4CC4)CC3)cc(-c3ccc(NC(=O)Nc4cc(C(F)(F)F)ccn4)c(F)c3)c12` [Example 235, N-{4-[4-amino-7-(1-cyclopropylpiperidin-4-yl)pyrrolo[2,1-f][1,2,4]triazin-5-yl]-2-fluorophenyl}-N′-[4-(trifluoromethyl)pyridin-2-yl]urea] gave an IC50 of 10 to 100 nM.
`Nc1ncnn2c(C3CCN(C(=O)CO)CC3)cc(-c3ccc(NC(=O)Nc4cc(C(F)(F)F)ccn4)c(F)c3)c12` [Example 236, N-{4-[4-amino-7-(1-glycoloylpiperidin-4-yl)pyrrolo[2,1-f][1,2,4]triazin-5-yl]-2-fluorophenyl}-N′-[4-(trifluoromethyl)pyridin-2-yl]urea] gave an IC50 of less than 10 nM.
On the same count and under the same terms, as for `CC(=O)N1CCC(c2cc(-c3ccc(NC(=O)Nc4cc(C(F)(F)F)ccn4)c(F)c3)c3c(N)ncnn23)CC1` [Example 237, N-{4-[7-(1-acetylpiperidin-4-yl)-4-aminopyrrolo[2,1-f][1,2,4]triazin-5-yl]-2-fluorophenyl}-N′-[4-(trifluoromethyl)pyridin-2-yl]urea], the figure is less than 10 nM; as for `CN(C)CC(=O)N1CCC(c2cc(-c3ccc(NC(=O)Nc4cc(C(F)(F)F)ccc4F)c(Cl)c3)c3c(N)ncnn23)CC1` [Example 240, N-(4-{4-amino-7-[1-(N,N-dimethylglycyl)piperidin-4-yl]pyrrolo[2,1-f][1,2,4]triazin-5-yl}-2-chlorophenyl)-N′-[2-fluoro-5-(trifluoromethyl)phenyl]urea], less than 10 nM.
In turn, `COCCN1CCC(c2cc(-c3ccc(NC(=O)Nc4cc(C(F)(F)F)ccc4F)c(Cl)c3)c3c(N)ncnn23)CC1` [Example 241, N-(4-{4-amino-7-[1-(2-methoxyethyl)piperidin-4-yl]pyrrolo[2,1-f][1,2,4]triazin-5-yl}-2-chlorophenyl)-N′-[2-fluoro-5-(trifluoromethyl)phenyl]urea] returned an IC50 of less than 10 nM.
In the case of `Nc1ncnn2c(C3CCNCC3)cc(-c3ccc(NC(=O)Nc4cc(C(F)(F)F)ccc4F)cc3)c12` [Example 242, N-[4-(4-amino-7-piperidin-4-ylpyrrolo[2,1-f][1,2,4]triazin-5-yl)phenyl]-N′-[2-fluoro-5-(trifluoromethyl)phenyl]urea], the IC50 was less than 10 nM.
`CCOCCN1CCC(c2cc(-c3ccc(NC(=O)Nc4cc(C(F)(F)F)ccc4F)c(Cl)c3)c3c(N)ncnn23)CC1` [Example 243, N-(4-{4-amino-7-[1-(2-ethoxyethyl)piperidin-4-yl]pyrrolo[2,1-f][1,2,4]triazin-5-yl}-2-chlorophenyl)-N′-[2-fluoro-5-(trifluoromethyl)phenyl]urea] had a half-inhibitory concentration (IC50) of 10 to 100 nM.
In turn, `Nc1ncnn2c(CCN3CCOCC3)cc(-c3ccc(NC(=O)Nc4cc(C(F)(F)F)ccn4)c(F)c3)c12` [Example 250, 1-{4-[4-amino-7-(2-morpholin-4-ylethyl)pyrrolo[2,1-f][1,2,4]triazin-5-yl]-2-fluorophenyl}-3-[4-(trifluoromethyl)pyridin-2-yl]urea] returned an IC50 of 10 to 100 nM.
As for `CC(O)c1cc(-c2ccc(NC(=O)Nc3cc(C(F)(F)F)ccc3F)c(F)c2)c2c(N)ncnn12` (stereo not shown) [Example 252, N-{4-[4-amino-7-(1-hydroxyethyl)pyrrolo[2,1-f][1,2,4]triazin-5-yl]-2-fluorophenyl}-N′-[2-fluoro-5-(trifluoromethyl)phenyl]urea], the IC50 lay within 10 to 100 nM.
In the case of `CC(=O)c1cc(-c2ccc(NC(=O)Nc3cc(C(F)(F)F)ccc3F)c(F)c2)c2c(N)ncnn12` [Example 253, N-[4-(7-acetyl-4-aminopyrrolo[2,1-f][1,2,4]triazin-5-yl)-2-fluorophenyl]-N′-[2-fluoro-5-(trifluoromethyl)phenyl]urea], the IC50 was less than 10 nM.
The same measure, in the same setting: as for `Nc1ncnn2c(C(O)CO)cc(-c3ccc(NC(=O)Nc4cc(C(F)(F)F)ccc4F)c(F)c3)c12` (stereo not shown) [Example 254, N-{4-[4-amino-7-(1,2-dihydroxyethyl)pyrrolo[2,1-f][1,2,4]triazin-5-yl]-2-fluorophenyl}-N′-[2-fluoro-5-(trifluoromethyl)phenyl]urea], the figure is more than 100 nM; as for `Nc1ncnn2c(C(O)C(O)CO)cc(-c3ccc(NC(=O)Nc4cc(C(F)(F)F)ccc4F)c(F)c3)c12` (stereo not shown) [Example 255, N-{4-[4-amino-7-(1,2,3-trihydroxypropyl)pyrrolo[2,1-f][1,2,4]triazin-5-yl]-2-flourophenyl}-N′-[2-fluoro-5-(trifluoromethyl)phenyl]urea], 10 to 100 nM.
In turn, `CC(=O)c1cc(-c2ccc(NC(=O)Nc3cc(C(F)(F)F)ccn3)c(F)c2)c2c(N)ncnn12` [Example 259, N-[4-(7-acetyl-4-aminopyrrolo[2,1-f][1,2,4]triazin-5-yl)-2-fluorophenyl]-N′-[4-(trifluoromethyl)pyridin-2-yl]urea] returned a half-inhibitory concentration (IC50) of less than 10 nM.
`Nc1ncnn2c(C(=O)COCCN3CCOCC3)cc(-c3ccc(NC(=O)Nc4cc(C(F)(F)F)ccc4F)c(F)c3)c12` [Example 260, N-(4-{4-amino-7-[(2-morpholin-4-ylethoxy)acetyl]pyrrolo[2,1-f][1,2,4]triazin-5-yl}-2-fluorophenyl)-N′-[2-fluoro-5-(trifluoromethyl)phenyl]urea] gave an IC50 of more than 100 nM.
`Nc1ncnn2c(CN3CCOCC3)cc(-c3ccc(NC(=O)Nc4cccc(C(F)(F)F)c4)c(C(F)(F)F)c3)c12` [Example 269, N-[4-[4-amino-7-(morpholin-4-ylmethyl)pyrrolo[2,1-f][1,2,4]triazin-5-yl]-2-(trifluoromethyl)phenyl]-N′-[3-(trifluoromethyl)phenyl]urea] yielded an IC50 of less than 10 nM.
On the same count and under the same terms, the value for `Nc1ncnn2c(-c3cnco3)cc(-c3ccc(NC(=O)Nc4cc(C(F)(F)F)ccn4)c(F)c3)c12` [Example 273, N-{4-[4-amino-7-(1,3-oxazol-5-yl)pyrrolo[2,1-f][1,2,4]triazin-5-yl]-2fluorophenyl}-N′-[4-(trifluoromethyl)pyridin-2-yl]urea] was 10 to 100 nM; that for `Nc1ncnn2c(CC3CNCCO3)cc(-c3ccc(NC(=O)Nc4cc(C(F)(F)F)ccc4F)c(F)c3)c12` (stereo not shown) [Example 276, N-{4-[4-amino-7-(morpholin-2-ylmethyl)pyrrolo[2,1-f][1,2,4]triazin-5-yl]-2-fluorophenyl}-N′-[2-fluoro-5-(trifluoromethyl)phenyl]urea] was 10 to 100 nM.

The same experiment, now with this note: upper bound of the bin 'greater than 100 nM but less than 1 μM' (lower bound in E1).
The compound `Nc1ncnn2c(C(O)CO)cc(-c3ccc(NC(=O)Nc4cc(C(F)(F)F)ccc4F)c(F)c3)c12` (stereo not shown) [Example 254, N-{4-[4-amino-7-(1,2-dihydroxyethyl)pyrrolo[2,1-f][1,2,4]triazin-5-yl]-2-fluorophenyl}-N′-[2-fluoro-5-(trifluoromethyl)phenyl]urea] displayed an IC50 of less than 1000 nM.
`Nc1ncnn2c(C(=O)COCCN3CCOCC3)cc(-c3ccc(NC(=O)Nc4cc(C(F)(F)F)ccc4F)c(F)c3)c12` [Example 260, N-(4-{4-amino-7-[(2-morpholin-4-ylethoxy)acetyl]pyrrolo[2,1-f][1,2,4]triazin-5-yl}-2-fluorophenyl)-N′-[2-fluoro-5-(trifluoromethyl)phenyl]urea] yielded an IC50 of less than 1000 nM.
